Assay results taken from patent US5475021A, “Compounds and compositions for inhibition of cyclooxygenase activity” (Vanderbilt University, priority 1993, dated 1995).
Read-outs that look alike come from different tables or passages of the source.

Assays:
[1] = target: T1, Holo Prostaglandin Endoperoxide Synthase (cyclooxygenase activity) (Ovis aries, UniProt P05979); test: Instantaneous inactivation of the cyclooxygenase activity of holo PGHS (oxygen consumption); type: biochemical, ram (seminal vesicles); conditions: for IC50: enzyme 0.25 μM, oxygen consumption
T1 construct: PGHS was purified from ram seminal vesicles; from tissue; host or cells: ram seminal vesicles
T1 sequence (P05979 25-600): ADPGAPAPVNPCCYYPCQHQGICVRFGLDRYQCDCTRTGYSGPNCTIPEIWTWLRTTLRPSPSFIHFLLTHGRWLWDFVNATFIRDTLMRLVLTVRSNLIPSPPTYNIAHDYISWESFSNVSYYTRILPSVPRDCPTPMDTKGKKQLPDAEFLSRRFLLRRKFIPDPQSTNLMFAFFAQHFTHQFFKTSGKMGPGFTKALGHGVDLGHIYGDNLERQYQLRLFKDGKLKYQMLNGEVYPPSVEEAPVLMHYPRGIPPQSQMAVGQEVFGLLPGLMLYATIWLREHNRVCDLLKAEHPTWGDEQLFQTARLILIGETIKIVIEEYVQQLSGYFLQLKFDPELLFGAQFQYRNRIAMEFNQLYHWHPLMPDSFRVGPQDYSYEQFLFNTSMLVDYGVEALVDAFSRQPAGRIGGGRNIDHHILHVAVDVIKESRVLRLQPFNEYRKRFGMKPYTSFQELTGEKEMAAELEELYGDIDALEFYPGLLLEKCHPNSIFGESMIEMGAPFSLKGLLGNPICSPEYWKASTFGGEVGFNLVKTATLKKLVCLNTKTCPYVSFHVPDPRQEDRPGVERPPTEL
Procedure: (§1) PGHS was purified from ram seminal vesicles.
(§2) Oxygen consumption was measured at 37° C. with a Gilson model 5/6 oxygraph equipped with a clark electrode and a thermostatted cuvette. Enzyme aliquots were added to 100 mM Tris-HCl at pH 8 containing 500 μM phenol and […] hematin. Oxygen uptake was initiated by the addition of 100 mM sodium arachidonate, and the initial reaction velocity was determined from the linear portion of the oxygen uptake curve.
The reaction mixture was allowed to reconstitute for 1 min and then varying inhibitor concentration were added to the reaction mixture. As quickly as possible, the cyclooxygenase reaction was initiated by the addition of 100 mM sodium arachidonate. […]

[2] = target: T2, holo PGHS (cyclooxygenase activity) (Ovis aries, UniProt P05979); test: Time dependent inactivation of cyclooxygenase activity; type: biochemical, ram (seminal vesicles); conditions: enzyme 0.25 μM; for Oxygen Consumption, T = 0: control 221; for Oxygen Consumption, T = 30: T = 30 (min), control 210; for Oxygen Consumption, T = 60: control 211
T2 sequence (P05979 25-600): T1 sequence (P05979 25-600)
Procedure: as §1, §2
A reaction mixture containing a 100 fold excess of the inhibitor(versus the enzyme concentration) (from a 10 mM stock in DMSO) and holo PGHS (5.3 mg/mL) (reconstituted with one equivalent of hematin) was incubated in a eppendorf tube at room temperature. Aliquots of the incubation mixture, at time intervals of t=0, 30 and 60 min were added to the oxygraph cell already containing 1.25 mL Tris HCL, 100 mM, pH 8, at 37° C., 500 μM phenol and 25 μL of 50 μM hematin. The cyclooxygenase reaction was initiated by the addition of 13 μL of 10 mM sodiumarachidonate in 10% MeOH (final concentration of AA was 100 μM). The oxygen consumption was measured from the linear portion of the O2 uptake curve.

holo PGHS [3] = conditions: Ser 530 in sheep (Ser 529 in humans); cited from earlier work
[4] = target: T3, holo PGHS (peroxidase activity) (Ovis aries, UniProt P05979); test: Instantaneous inactivation of peroxidase activity (guaiacol oxidation); type: biochemical, ram (seminal vesicles); conditions: for IC50: enzyme 0.25 μM
T3 construct: PGHS was purified from ram seminal vesicles; from tissue; host or cells: ram seminal vesicles
T3 sequence (P05979 25-600): T1 sequence (P05979 25-600)
Procedure: as §1
Enzyme aliquots were added to 100 mM Tris HCl (pH 8) containing […] heme, 500 μM guaiacol in disposible cuvettes. Reaction was initiated by the addition of 400 μM H2 O2.
This reaction mixture was treated with a given concentration of the inhibitor and then as quickly as possible the peroxidase reaction was initiated by the addition of 0.4 mM H2 O2. The initial rates of oxidation were measured for 20 sec at a repeat rate of 1 second. (Table 4)

[5] = target: T4, PGHS (cyclooxygenase activity) (Ovis aries, UniProt P05979); test: IC50 for inactivation of cyclooxygenase activity of PGHS after 30 min incubation; type: biochemical, ram (seminal vesicles)
T4 construct: PGHS was purified from ram seminal vesicles; from tissue; host or cells: ram seminal vesicles
T4 sequence (P05979 25-600): T1 sequence (P05979 25-600)
Procedure: as §1, §2
Varying inhibitor concentrations were incubated with reconstituted holo PGHS (final concentration in the oxygraph cell was 250 nM) at room temperature for 30 min. Aliquots of this incubation mixture were added to the oxygraph cell containing 100 mM Tris-HCl at pH 8 with 500 μm of phenol and 1 μM hematin. The reaction mixture was allowed to reconstitute for 1 min and the cyclooxygenase reaction was initiated by the addition of 100 mM sodium arachidonate. (Table 1)
In all experiments the enzyme concentrations was 0.25 μM.

[6] = test system: PGHS (cyclooxygenase activity); test: Inactivation of cyclooxygenase activity of PGHS by cysteine specific reagents; type: biochemical
Text: (§3) Thiyl radicals (as reviewed in Shoeneich, 1992) can be potentially generated from cysteines present in PGHS, in the catabolism of arachidonic acid. […] Site-directed mutagenesis experiments to mutate these cysteines to serines and their corresponding effect on prostaglandin biosynthesis are presently being carried out.

holo PGHS [7] = test: Inactivation of holo PGHS; type: biochemical
Text: as §3

[8] = test system: PGHS (peroxidase activity); test: Inactivation of peroxidase activity of PGHS by cysteine specific reagents; type: biochemical
Text: as §3

cyclooxygenase = conditions: cited from earlier work
mouse = conditions: doses much below those required by indomethacin; cited from earlier work
guinea pigs = conditions: doses much below those required by indomethacin; cited from earlier work
PGHS protein = test: Mechanistic studies: conformational change in the PGHS protein
[9] = target: T5, cyclooxygenase activity of PGHS (Ovis aries, UniProt P05979); test: Inhibition of cyclooxygenase activity of PGHS by analog 2; type: biochemical
T5 sequence (P05979 25-600): T1 sequence (P05979 25-600)
Text: Preliminary structure-activity studies on compounds with structural similarity indicate the position of oxygen on the omega side chain and the stereochemistry on the oxobicycloheptane ring as the governing factors in the inhibition.
The basis for the inhibitory activity of a given NSAID depends on the interaction of the NSAID with the active site of the enzyme it inhibits. A working model for the active site of fatty acid cyclooxygenase with the pattern recognition of known inhibitors as well as conformational minimizations of the natural substrate AA has been constructed. The Squibb group recently described a novel series of 7-oxabicycloheptylpro stanoic acid derivatives that inhibit AA-induced platelet aggregation and AA oxygenation by platelet and bovine seminal microsomes. […]

[10] = cited from earlier work
[11] = enzyme 0.25 μM, 30 min incubation with inhibitor, read-out: IC50 for inactivation of cyclooxygenase activity of PGHS
[12] = read-out: IC50 (aspirin analogs 44 and 45)

2-[2-(N-Maleimidoethoxy)]benzoic acid [Compound 7]
IC50 [1]: 140 µM
Oxygen Consumption, T = 0 ([2]; inhibitor 16 μM): 180 µM/min
Oxygen Consumption, T = 30 ([2]; inhibitor 16 μM): 27 µM/min
Oxygen Consumption, T = 60 (symbol) ([2]; inhibitor 16 μM, T = 60 (min)): --b

CC(=O)Oc1ccccc1C(=O)O [Aspirin]
acylation of Ser 530 of PGHS (holo PGHS [3]): inactivates the cyclooxygenase activity of holo PGHS by regioselective acylation of Ser 530

O=C(O)CCCCCN1C(=O)C=CC1=O [Compound 1, N-6-(Maleimido)hexanoic acid]
IC50 [1]: > 800 µM
Oxygen Consumption, T = 0 ([2]; inhibitor 16 μM): 212 µM/min
Oxygen Consumption, T = 30 ([2]; inhibitor 16 μM): 205 µM/min
Oxygen Consumption, T = 60 ([2]; inhibitor 16 μM, T = 60 (min)): 204 µM/min
IC50 [4]: > 800 µM

O=C(O)CCCCCCN1C(=O)C=CC1=O [Compound 2, N-7-(Maleimido)heptanoic acid]
IC50 [1]: 570 µM
Oxygen Consumption, T = 0 ([2]; inhibitor 16 μM): 195 µM/min
Oxygen Consumption, T = 30 ([2]; inhibitor 16 μM): 142 µM/min
Oxygen Consumption, T = 60 ([2]; inhibitor 16 μM, T = 60 (min)): 106 µM/min
IC50 [4]: > 800 µM
remaining activity at 800 µM ([4]; pH 8, at 800 μM): 81%

O=C(O)CCCCCCCCN1C(=O)C=CC1=O [Compound 4, 9-(Maleimido)-1-nonanoic acid]
IC50 [1]: 26 µM
Oxygen Consumption, T = 0 ([2]; inhibitor 10 μM): 203 µM/min
Oxygen Consumption, T = 30 ([2]; inhibitor 10 μM): 121 µM/min
Oxygen Consumption, T = 60 ([2]; inhibitor 10 μM, T = 60 (min)): 68 µM/min

O=C(O)c1ccccc1OCCN1C(=O)C=CC1=O [Compound 6 (Example 1), 2-[2-(N-Maleimidoethoxy)]benzoic acid]
instantaneous inactivation of cyclooxygenase activity [1]: failure

CCCCCCCCN1C(=O)C=CC1=O [Compound 8]
IC50 [5, 11]: 250 µM

CCCCCCCCCN1C(=O)C=CC1=O [Compound 9]
IC50 [5, 11]: 50 µM

CCCCCCCCCCN1C(=O)C=CC1=O [Compound 10]
IC50 [5, 11]: 27 µM

Cc1ccccc1CN1C(=O)C=CC1=O [Compound 11]
IC50 [5, 11]: 9 µM

O=C(O)c1ccc(CN2C(=O)C=CC2=O)cc1 [Compound 12]
IC50 [5, 11]: 12 µM

O=C(O)c1ccccc1OCCN1C(=O)C=CC1=O [Compound 13]
IC50 [5, 11]: 40 µM

O=C(O)CCCCCCCN1C(=O)CCC1=O [Compound 39, N-8-(Succinimido)octanoic acid]
instantaneous inactivation of cyclooxygenase activity [1]: did not inactivate PGHS
inhibition of the enzyme at 500 fold excess ([1]; 500 fold excess): did not inhibit the enzyme, even at a 500 fold excess
instantaneous inactivation of cyclooxygenase activity ([1]; listed as corresponding succinimide): did not display any inactivation at analogous concentrations and at higher concentrations

CC(=O)Oc1cc(N2C(=O)C=CC2=O)ccc1C(=O)O [Compound 44]
Inhibition of cyclooxygenase at 200 μM (footnote a, Table 2) ([5]; 200 μM, 30 min incubation): No significant inhibition observed
IC50 [5, 12]: > 200 µM

CC(=O)Oc1ccc(N2C(=O)C=CC2=O)cc1C(=O)O [Compound 45]
IC50 [5, 12]: 29 µM

CC(=O)n1ccnc1 [N-acetylimidazole]
acylation of Ser 530 of PGHS (holo PGHS [3]): did not result in regioselective acetylation

CCN1C(=O)C=CC1=O [NEM, N-ethylmaleimide]
inactivation of cyclooxygenase activity by cysteine specific reagent [6]: time- and concentration-dependent inactivation
inactivation of holo PGHS (holo PGHS [7]): inactivates holo
inactivation of peroxidase activity by cysteine specific reagent [8]: time- and concentration-dependent inactivation

CCCCCCOCC1C2CCC(O2)C1CC=CCCCC(=O)O (centres unmarked) [analog 1]
inhibition of cyclooxygenase activity in vitro (cyclooxygenase): inhibition of cyclooxygenase activity in vitro
prevention of AA-induced sudden death (mouse): prevents AA-induced sudden death in the mouse
prevention of AA-induced changes in lung mechanics (guinea pigs): AA-induced changes in lung mechanics in guinea pigs at doses much below those required for similar effects by indomethacin

CCCCCCOCC1C2CCC(O2)C1CC=CCCC(C)(C)C(=O)O (centres unmarked) [analog 2]
inhibition of cyclooxygenase activity in vitro (cyclooxygenase): displays the same activities as analog 1
conformational change in the PGHS protein (PGHS protein): induces a conformational change in the PGHS protein
time-dependent inhibition of cyclooxygenase activity [9]: potent time-dependent inhibitor
IC50 ([9]; enzyme concentration 140 nM): 80 nM
IC100 ([9]; enzyme concentration 140 nM, read-out: concentration with complete inhibition): 0.15 µM
duration of action in vivo, relative to analog 1 [10]: longer duration of action in vivo

N-11-(Maleimido)undecanoic acid [Compound 5]
IC50 [1]: 37 µM
Oxygen Consumption, T = 0 ([2]; inhibitor 10 μM): 207 µM/min
Oxygen Consumption, T = 30 ([2]; inhibitor 10 μM): 178 µM/min
Oxygen Consumption, T = 60 ([2]; inhibitor 10 μM, T = 60 (min)): 81 µM/min
